Experimental findings from ChEMBL document CHEMBL1150809, “New acyclic sesquiterpenes and norsesquiterpenes from the Caribbean Gorgonian Plexaurella grisea” (J Nat Prod, 2001) are described below.

Holding throughout (format): functional, cell-based
One experiment concerns P388. Nature of the experiment: Cytotoxicity against mouse P388 cells.
In another experiment the test system is A549. Nature of the experiment: Cytotoxicity against human A549 cells.
Another experiment has as its system SK-MEL-28. Nature of the experiment: Cytotoxicity against human SK-MEL-28 cells.
A further experiment deals with HT-29. The experiment in a line: Cytotoxicity against human HT-29 cells.

Each structure is given as a SMILES string. Values after ≈ are worked out from the molar mass of the structure shown.

On to `C=C/C(C)=C\C=C\C(C)CC(=O)CC(C)C` (stereo not given), for which the IC50 with P388, with A549, in the experiment on SK-MEL-28 and in the experiment on HT-29 was 2.5 µg/mL (≈ 11.3 µM) each time.
For `CC(C)=CCCC(C)/C=C/C=C(\C)C=O` (stereo not given), the IC50 with P388 was determined as 0.5 µg/mL (≈ 2.42 µM); with A549, 2.5 µg/mL (≈ 12.1 µM); in the experiment with SK-MEL-28, 2.5 µg/mL (≈ 12.1 µM); in the experiment with HT-29, 2.5 µg/mL (≈ 12.1 µM).
With `CC(C)=C/C=C\C(C)/C=C/C=C(\C)C=O` (stereo not given), the IC50 in the experiment on P388, in the experiment with A549, with SK-MEL-28 and in the experiment on HT-29 was above 10 µg/mL in each case.
For the compound `C=C/C(C)=C/CC(OC(C)=O)C(=C)CCC=C(C)C` (stereo not given), the IC50 with P388 turned out to be 2.5 µg/mL (≈ 9.53 µM); with A549, 5 µg/mL (≈ 19.1 µM); in the experiment with SK-MEL-28 it was 5 µg/mL (≈ 19.1 µM); in the experiment with HT-29, 5 µg/mL (≈ 19.1 µM).
As to `C=C/C(C)=C/C=C/C(C)CC(=O)CC(C)C` (stereo not given), the half-inhibitory concentration (IC50) in the experiment on P388 came to 2.5 µg/mL (≈ 11.3 µM); in the experiment with A549, 5 µg/mL (≈ 22.7 µM); in the experiment on SK-MEL-28, 5 µg/mL (≈ 22.7 µM); in the experiment on HT-29, 5 µg/mL (≈ 22.7 µM).

In general, IC50 refers to the concentration that inhibits the measured activity by half. A high value points to weaker potency in that assay.
